How the values were obtained:
RSV A2 = assay: Screening for RSV inhibition using Viral ToxGlo assay in HEp-2 cells; assay type: cell-based; conditions: human respiratory syncytial virus, HEp-2, 72 h
Method: Protocol for Screening Antiviral Compounds for RSV Inhibition and Cytotoxicity Using Viral ToxGlo Assay
HEp-2 cells were maintained in Eagle's minimum essential medium (EMEM) with Earle's BSS adjusted to contain 2 mM L-glutamine, 10% fetal bovine serum, 100 U/ml penicillin and 100 μg/ml streptomycin. For the purposes of the screening assay they were grown to 90% confluency, trypsinized and recovered. The trypsin was neutralised with cell culture media and cells were centrifuged at 150×g for 5 minutes before discarding the supernatant and resuspending cell pellet in assay media (EMEM with Earle's BSS adjusted to contain 2 mM L-glutamine, 2% fetal bovine serum and 100 U/ml penicillin and 100 μg/ml streptomycin). The cells were seeded into white clear-bottomed cell culture plates at a density of 1.5×10^4 cells/well in 50 μl and 4×10^3 cells/well in 25 μl for 96 well plates and 384 well plates respectively. For the media/background control column assay media only was added. Cell plates were placed in a humid chamber and incubated overnight at 37° C./5% CO2. After overnight incubation cells were checked for confluency and healthy appearance.
Test articles were made up at 10× test concentration in a maximum DMSO concentration of 10% (final assay concentration maximal 1% DMSO) and added to the cell plates in volumes of 10 μl for 96 well plates and 5 μl for 384 well plates. For cell control and virus control wells the test article solvent only was added. Virus or assay media for cytotoxicity test wells and media/cell control wells was added immediately after test articles at an MOI of 0.5, 40 or 20 μl for 96 and 384 well plates respectively. Virus suspension was prepared by thawing RSV A2 frozen stocks and diluting to the required concentration of plaque forming units in assay media on ice.
(§1) Cell plates were further incubated inside a humid chamber for 72 h p.i at 37° C./5% CO2. After the incubation period cells were observed under the microscope to check for characteristic cytopathic effect in virus control wells and healthy cells in the cell control wells. After plates were adjusted to room temperature 20/40 μl Viral ToxGlo (Promega) was added to each well of the 384/96 well cell plates. Plates were incubated at room temperature, protected from light on a plate rocker for 20 minutes before measuring the luminescence on a spectrophotometer (Biotek Synergy HTX).
RSV inhibition was calculated as percentage of cytopathic effect inhibition relative to the virus control and cytotoxicity as percentage of cell survival relative to cell control wells. This allowed EC50 values to be calculated for each test article where a virus inhibition or cytotoxic dose response was identified. EC50 values ranging between 0.001 µM and 5 μM could thus be determined for compounds 1, 6, 10, 13, 28, 38, 43, 47, 48, 49, 50, 51, 52, 53, 54, 55, 56 and 57.

DENV-2 strain 16681 = assay: Screening for DENV-2 inhibition using Viral ToxGlo assay in A549 cells; assay type: cell-based, Dengue 2 virus; conditions: Dengue virus, DENV2, A549, 120 h, read-out: % DENV-2 Inhibition Mean (n = 3)
Method: Protocol for Screening Antiviral Compounds for DENV-2 Inhibition and Cytotoxicity Using Viral ToxGlo Assay
A549 cells were maintained in Dulbecco's Modified Eagle Medium (DMEM) supplemented with 10% fetal bovine serum, 100 U/ml penicillin and 100 μg/ml streptomycin. For the purposes of the screening assay they were grown to 90% confluency, trypsinized and recovered. The trypsin was neutralised with cell culture media and cells were centrifuged at 150×g for 5 minutes before discarding the supernatant and resuspending cell pellet in assay media (DMEM supplemented with 2% fetal bovine serum and 100 U/ml penicillin and 100 μg/ml streptomycin). The cells were seeded into 96-well white clear-bottomed cell culture plates at a density of 1.0×10^4 cells/well in 50 μl. For the media/background control column assay media only was added. Cell plates were placed in a humid chamber and incubated overnight at 37° C./5% CO2. After overnight incubation cells were checked for confluency and healthy appearance.
Test compounds were prepared at a final concentration of 10 μM, in a maximum DMSO concentration of 1% (final assay concentration maximal 0.1% DMSO) and added to the cell plates in volumes of 10 μl. For cell control and virus control wells the test article solvent only was added. As a positive inhibition control, 7-Deaza-2′-C-methyladenosine was added at 100 μM in 3 wells. Virus (DENV-2 strain 16681) or assay media for cytotoxicity test wells and media/cell control wells was added immediately after test articles at an MOI of 0.5, 40 for 96 well plates respectively. Virus suspension was prepared by thawing DENV-2 frozen stocks and diluting to the required concentration of plaque forming units in assay media.
as §1, with “5 days” for “72 h”, “20” for “20/40”, “96-well” for “384/96 well”, “temperature” for “temperature, protected from light on a plate rocker”, “5” for “20”, “(Envision, PerkinElmer).” for “(Biotek Synergy HTX).”
DENV-2 inhibition was calculated as percentage of cytopathic effect inhibition relative to the virus control and cytotoxicity as percentage of cell survival relative to cell control wells.

Row | Structure (SMILES) | EC50 (RSV A2) [nM] | inhibition at 10 µM (DENV-2 strain 16681) [%]
1 | Cc1cc(OC(C)C)c(C)cc1Nc1ccc2cccc(Cl)c2n1 [Compound 43, 8-chloro-N-(4-isopropoxy-2,5-dimethylphenyl)quinolin-2-amine] | 348 | 68
2 | CCc1cc(OC(C)C)ccc1Nc1ccc2cccc(Cl)c2n1 [Compound 13, 8-chloro-N-(2-ethyl-4-isopropoxyphenyl)quinolin-2-amine] | 1180 | 117
3 | Cc1cc(OC(C)C)ccc1Nc1ccc2cccc(Cl)c2n1 [Compound 10, 8-chloro-N-(4-isopropoxy-2-methylphenyl)quinolin-2-amine] | 585 | 79

From patent US12084422B2, “Phenyl-n-quinoline derivatives for treating a RNA virus infection” (ABIVAX, priority 2018, dated 2024)
